Source: patent US20120041211A1, “NOVEL PROCESS FOR PREPARING CARBOXY-CONTAINING PYRAZOLEAMIDO COMPOUNDS 597” (priority 2009, published 2012)

Assay: Stability of solvate form on exposure to the lab atmosphere
Type: physicochemical
Details: 21° C., 30% relative humidity, material from wet suspension
Procedure: 20 mg of Form 4 was added to a small vessel. 0.711 ml of Form 4 saturated MeOH solution was added to the vessel making a suspension. The suspension was stirred for 7 days at 25° C. Thereafter the suspension was stirred at 21° C. for 1½ months. The wet suspension was analysed by XRPD (Cu-source) giving substantially the following d-values. […] For diffractogram see FIG. 8.
20 mg of Form 4 was added to a small vessel. 0.711 ml MTBE was added to the vessel making a suspension. The suspension was stirred for 7 days at 25° C. The wet suspension was analysed by XRPD (Cu-source) giving substantially the following d-values.

stability / form transformation on exposure to the lab atmosphere | Compound
rapidly transforms to Form 3 | CC(C)(C)c1c(C(=O)NC2C3CC4CC(C3)CC2C4)cnn1-c1ccc(C(=O)O)cc1 (centres unmarked) [MeOH Solvate, 4-[4-(2-adamantylcarbamoyl)-5-tert-butyl-pyrazol-1-yl]benzoic acid]
transforms to Hydrate | CC(C)(C)c1c(C(=O)NC2C3CC4CC(C3)CC2C4)cnn1-c1ccc(C(=O)O)cc1 (centres unmarked) [MTBE Solvate, 4-[4-(2-adamantylcarbamoyl)-5-tert-butyl-pyrazol-1-yl]benzoic acid]
